According to the NIST ThermoML archive (doi:10.1021/je2010209):

Experiment: xn = mol fraction of the nth substance listed
Details: 101 kPa, Liquid; for speed of sound: Sing-around technique in a fixed-path interferometer; for mass density: Vibrating tube method

COCCOCCOCCO [2-[2-(2-methoxyethoxy)ethoxy]ethanol] + CCCCn1cc[n+](C)c1.F[B-](F)(F)F
Details | mass density [kg/m3] | speed of sound [m/s]
288.15 K, x2 = 0 | 1050.1 | 1470
288.15 K, x2 = 0.024 | 1056.87 | 1484
288.15 K, x2 = 0.107 | 1076.66 | 1510
288.15 K, x2 = 0.2241 | 1099.67 | 1541
288.15 K, x2 = 0.3275 | 1118.29 | 1555
288.15 K, x2 = 0.4285 | 1135.35 | 1564
288.15 K, x2 = 0.5067 | 1147.58 | 1570
288.15 K, x2 = 0.6282 | 1164.47 | 1575
288.15 K, x2 = 0.7072 | 1174.32 | 1581
288.15 K, x2 = 0.8256 | 1188.11 | 1584
288.15 K, x2 = 0.913 | 1197.84 | 1585
293.15 K, x2 = 0 | 1045.75 | 1452
293.15 K, x2 = 0.024 | 1052.52 | 1466
293.15 K, x2 = 0.107 | 1072.57 | 1492
293.15 K, x2 = 0.2241 | 1095.95 | 1519
293.15 K, x2 = 0.3275 | 1114.5 | 1539
293.15 K, x2 = 0.4285 | 1131.41 | 1550
293.15 K, x2 = 0.5067 | 1143.6 | 1555
293.15 K, x2 = 0.6282 | 1160.74 | 1561
293.15 K, x2 = 0.7072 | 1170.79 | 1568
293.15 K, x2 = 0.8256 | 1184.68 | 1572
293.15 K, x2 = 0.913 | 1194.26 | 1573
298.15 K, x2 = 0 | 1041.32 | 1436
298.15 K, x2 = 0.024 | 1048.15 | 1450
298.15 K, x2 = 0.107 | 1068.36 | 1475
298.15 K, x2 = 0.2241 | 1091.87 | 1503
298.15 K, x2 = 0.3275 | 1110.48 | 1524
298.15 K, x2 = 0.4285 | 1127.42 | 1533
298.15 K, x2 = 0.5067 | 1139.64 | 1541
298.15 K, x2 = 0.6282 | 1156.88 | 1548
298.15 K, x2 = 0.7072 | 1167 | 1555
298.15 K, x2 = 0.8256 | 1181.03 | 1560
298.15 K, x2 = 0.913 | 1190.69 | 1560
303.15 K, x2 = 0 | 1036.84 | 1421
303.15 K, x2 = 0.024 | 1043.76 | 1435
303.15 K, x2 = 0.107 | 1064.17 | 1458
303.15 K, x2 = 0.2241 | 1087.79 | 1488
303.15 K, x2 = 0.3275 | 1106.46 | 1509
303.15 K, x2 = 0.4285 | 1123.48 | 1519
303.15 K, x2 = 0.5067 | 1135.77 | 1528
303.15 K, x2 = 0.6282 | 1153.12 | 1534
303.15 K, x2 = 0.7072 | 1163.33 | 1543
303.15 K, x2 = 0.8256 | 1177.39 | 1548
303.15 K, x2 = 0.913 | 1187 | 1549
308.15 K, x2 = 0 | 1032.27 | 1408
308.15 K, x2 = 0.024 | 1039.37 | 1421
308.15 K, x2 = 0.107 | 1060.13 | 1444
308.15 K, x2 = 0.2241 | 1083.76 | 1475
308.15 K, x2 = 0.3275 | 1102.44 | 1494
308.15 K, x2 = 0.4285 | 1119.54 | 1507
308.15 K, x2 = 0.5067 | 1131.91 | 1516
308.15 K, x2 = 0.6282 | 1149.37 | 1523
308.15 K, x2 = 0.7072 | 1159.63 | 1530
308.15 K, x2 = 0.8256 | 1173.68 | 1536
308.15 K, x2 = 0.913 | 1183.36 | 1538
313.15 K, x2 = 0 | 1027.76 | 1393
313.15 K, x2 = 0.024 | 1034.9 | 1406
313.15 K, x2 = 0.107 | 1055.73 | 1431
313.15 K, x2 = 0.2241 | 1079.59 | 1461
313.15 K, x2 = 0.3275 | 1098.41 | 1483
313.15 K, x2 = 0.4285 | 1115.62 | 1493
313.15 K, x2 = 0.5067 | 1128.04 | 1503
313.15 K, x2 = 0.6282 | 1145.63 | 1511
313.15 K, x2 = 0.7072 | 1155.93 | 1518
313.15 K, x2 = 0.8256 | 1170.13 | 1524
313.15 K, x2 = 0.913 | 1179.9 | 1527
318.15 K, x2 = 0 | 1023.3 | 1376
318.15 K, x2 = 0.024 | 1030.54 | 1390
318.15 K, x2 = 0.107 | 1051.51 | 1415
318.15 K, x2 = 0.2241 | 1075.43 | 1447
318.15 K, x2 = 0.3275 | 1094.37 | 1468
318.15 K, x2 = 0.4285 | 1111.73 | 1480
318.15 K, x2 = 0.5067 | 1124.25 | 1490
318.15 K, x2 = 0.6282 | 1141.8 | 1500
318.15 K, x2 = 0.7072 | 1152 | 1506
318.15 K, x2 = 0.8256 | 1166.14 | 1513
318.15 K, x2 = 0.913 | 1176 | 1516
